Series [1] concerns Trypanosoma brucei brucei. The series is described as follows: Downregulation of NADPH level in bloodstream Trypanosoma brucei brucei 427 assessed as increase in pyruvate level at 1 uM incubated for 5 hrs. Format: functional.
Series [2] concerns Trypanosoma brucei brucei. The series is described as follows: Disruption of nucleotide metabolism in bloodstream Trypanosoma brucei brucei 427 assessed as accumulation of purine/pyrimidine base forms at 1 uM incubated for 5 hrs. Format: functional, organism-based.
Series [3] deals with Trypanosoma brucei brucei. The series is described as follows: Effect on acetyl-CoA level in bloodstream Trypanosoma brucei brucei 427 assessed as increase in pyruvate level at 1 uM incubated for 5 hrs. In kind it is functional.
Series [4] deals with Trypanosoma brucei brucei. Description: Effect on free carnitine level in bloodstream Trypanosoma brucei brucei 427 assessed as increase in pyruvate level at 1 uM incubated for 5 hrs. Format: functional.
The subject of series [5] is Trypanosoma brucei brucei. Description: Effect on acetyl-carnitine level in bloodstream Trypanosoma brucei brucei 427 assessed as increase in pyruvate level at 1 uM incubated for 5 hrs. In kind it is functional.
Series [6] concerns Trypanosoma brucei brucei. The series is described as follows: Upregulation of glycolytic flux in bloodstream Trypanosoma brucei brucei 427 assessed as increase in pyruvate level at 1 uM incubated for 5 hrs. In kind it is functional.
Series [7] has as its system Trypanosoma brucei brucei. Description: Disruption of nucleotide metabolism in bloodstream Trypanosoma brucei brucei 427 assessed as accumulation of NMP at 1 uM incubated for 5 hrs. Format: functional, organism-based.
In series [8] the test system is Trypanosoma brucei brucei. The series is described as follows: Effect on palmitoyl-CoA level in bloodstream Trypanosoma brucei brucei 427 assessed as increase in pyruvate level at 1 uM incubated for 5 hrs. Format: functional.
Series [9] deals with Trypanosoma brucei brucei. The series is described as follows: Downregulation of 6-phosphogluconate level in bloodstream Trypanosoma brucei brucei 427 assessed as increase in pyruvate level at 1 uM incubated for 5 hrs. In kind it is functional.
A short description of series [10]: Selectivity ratio of IC50 for HEK293 cells to IC50 for Trypanosoma brucei brucei. Format: toxicity. The conditions noted are these: human, read-out: Ratio IC50.
For series [11], the system named is Trypanosoma brucei brucei. The series is described as follows: Disruption of nucleotide metabolism in bloodstream Trypanosoma brucei brucei 427 assessed as accumulation of NDP at 1 uM incubated for 5 hrs. In kind it is functional, organism-based.
Series [12] has as its system Trypanosoma brucei brucei. Description: Upregulation of carnitine to acetyl-carnitine ratio in bloodstream Trypanosoma brucei brucei 427 assessed as increase in pyruvate level at 1 uM incubated for 5 hrs. Format: functional.
For series [13], the system named is Trypanosoma brucei brucei. Description: Effect on free CoA level in bloodstream Trypanosoma brucei brucei 427 assessed as increase in pyruvate level at 1 uM incubated for 5 hrs. In kind it is functional.
The test system of series [14] is Trypanosoma brucei brucei. Description: Disruption of nucleotide metabolism in bloodstream Trypanosoma brucei brucei 427 assessed as accumulation of nucleosides at 1 uM incubated for 5 hrs. Format: functional, organism-based.
Series [15] has as its system Trypanosoma brucei brucei. The series is described as follows: Induction of glycolysis in bloodstream Trypanosoma brucei brucei 427 assessed as increase in glycerol level at 1 uM incubated for 5 hrs. In kind it is functional.
Series [16] deals with Trypanosoma brucei brucei. Description: Effect on stearoyl-CoA level in bloodstream Trypanosoma brucei brucei 427 assessed as increase in pyruvate level at 1 uM incubated for 5 hrs. In kind it is functional.
Series [17] has as its system Trypanosoma brucei brucei. The series is described as follows: Anti-trypanosomal activity against Trypanosoma brucei brucei incubated for 48 hrs by alamar blue assay. In kind it is functional, organism-based.
Series [18] deals with Trypanosoma brucei brucei. The series is described as follows: Disruption of nucleotide metabolism in bloodstream Trypanosoma brucei brucei 427 assessed as depletion of NTP at 1 uM incubated for 5 hrs. Format: functional, organism-based.
The subject of series [19] is Trypanosoma brucei brucei. The series is described as follows: Induction of glycolysis in bloodstream Trypanosoma brucei brucei 427 assessed as increase in pyruvate level at 1 uM incubated for 5 hrs. Format: functional.
Series [20] concerns Trypanosoma brucei brucei. The series is described as follows: Induction of glycolysis in bloodstream Trypanosoma brucei brucei 427 assessed as increase in succinate level at 1 uM incubated for 5 hrs. In kind it is functional.
A short description of series [21]: Cytotoxicity against HEK293 cells assessed as inhibition of cell viability at 83 uM relative to control. Format: toxicity, cell-based. The conditions noted are these: human, read-out: INH.
For series [22], the system named is Trypanosoma brucei brucei. The series is described as follows: Anti-trypanosomal activity against Trypanosoma brucei brucei at 10 uM relative to control. Format: functional.
For series [23], the system named is Trypanosoma brucei brucei. The series is described as follows: Anti-trypanosomal activity against Trypanosoma brucei brucei at 42 uM relative to control. Format: functional.
Series [24] relates to Trypanosoma brucei brucei. The series is described as follows: Disruption of nucleotide metabolism in bloodstream Trypanosoma brucei brucei 427 assessed as depletion of deoxy-ATP at 1 uM incubated for 5 hrs. Format: functional, organism-based.
The subject of series [25] is Trypanosoma brucei brucei. Description: Disruption of nucleotide metabolism in bloodstream Trypanosoma brucei brucei 427 assessed as depletion of deoxy-UTP at 1 uM incubated for 5 hrs. Format: functional, organism-based.
The subject of series [26] is Trypanosoma brucei brucei. Description: Disruption of nucleotide metabolism in bloodstream Trypanosoma brucei brucei 427 assessed as depletion of GTP at 1 uM incubated for 5 hrs. In kind it is functional, organism-based.
In series [27] the test system is Trypanosoma brucei brucei. Description: Disruption of nucleotide metabolism in bloodstream Trypanosoma brucei brucei 427 assessed as depletion of UTP at 1 uM incubated for 5 hrs. Format: functional, organism-based.
Series [28] deals with Trypanosoma brucei brucei. The series is described as follows: Disruption of nucleotide metabolism in bloodstream Trypanosoma brucei brucei 427 assessed as depletion of CTP at 1 uM incubated for 5 hrs. In kind it is functional, organism-based.
The test system of series [29] is Trypanosoma brucei brucei. Description: Disruption of nucleotide metabolism in bloodstream Trypanosoma brucei brucei 427 assessed as fold increase in AMP at 1 uM incubated for 5 hrs. In kind it is functional.
For series [30], the system named is Trypanosoma brucei brucei. The series is described as follows: Disruption of nucleotide metabolism in bloodstream Trypanosoma brucei brucei 427 assessed as depletion of ATP at 1 uM incubated for 5 hrs. In kind it is functional, organism-based.
In series [31] the test system is Trypanosoma brucei brucei. The series is described as follows: Disruption of nucleotide metabolism in bloodstream Trypanosoma brucei brucei 427 assessed as depletion of deoxy-GTP at 1 uM incubated for 5 hrs. Format: functional, organism-based.
The test system of series [32] is Trypanosoma brucei brucei. The series is described as follows: Disruption of nucleotide metabolism in bloodstream Trypanosoma brucei brucei 427 assessed as depletion of deoxy-CTP at 1 uM incubated for 5 hrs. In kind it is functional, organism-based.
Series [33] has as its system Trypanosoma brucei brucei. The series is described as follows: Opposing effect on metabolism in bloodstream Trypanosoma brucei brucei 427 at 1 uM incubated for 5 hrs by LC-MS based principal component analysis. Format: functional, organism-based.
In series [34] the test system is Trypanosoma brucei brucei. The series is described as follows: Effect on nucleotide metabolism in bloodstream Trypanosoma brucei brucei 427 at 1 uM incubated for 5 hrs by pathway enrichment analysis. Format: functional.
For series [35], the system named is Trypanosoma brucei brucei. The series is described as follows: Disruption of nucleotide metabolism in bloodstream Trypanosoma brucei brucei 427 assessed as accumulation of AMP at 1 uM incubated for 5 hrs. In kind it is functional, organism-based.
For series [36], the system named is Trypanosoma brucei brucei. The series is described as follows: Anti-trypanosomal activity against Trypanosoma brucei brucei. Format: functional, organism-based.
For series [37], the system named is Trypanosoma brucei brucei. Description: Effect on carbohydrate metabolism in bloodstream Trypanosoma brucei brucei 427 at 1 uM incubated for 5 hrs by pathway enrichment analysis. Format: functional.
Series [38] can be described thus: Cytotoxicity against HEK293 cells. Format: toxicity, cell-based. Conditions: human.
Series [39] relates to Trypanosoma brucei brucei. The series is described as follows: Disruption of nucleotide metabolism in bloodstream Trypanosoma brucei brucei 427 assessed as depletion of ATP at 1 uM incubated for 5 hrs relative to control. Format: functional.

The source made the active and inactive calls. The calls are words filed in the database; no cut-off is given here.

For `CCc1ccccc1/N=C(\NCCN1CCOCC1)NC(=O)c1ccccc1`, the outcome in series [1], in series [2], in series [4], in [5], in series [6] and in series [7] was inactive. Also, the result in [8], in series [9], in series [11], in series [12], in series [13] and in series [14] was inactive. For the same molecule, the result in [15], in series [16], in series [18], in [19] and in series [20] was inactive. For the same molecule, in series [3], the outcome was Active. In addition, in [10], the selectivity ratio was at least 29. Half-maximal inhibition in [17] (IC50) was put at 2.6 µM.

As to `CCc1ccccc1/N=C(\NCCN1CCOCC1)NC(=O)c1cccc(Cl)c1`, in series [21], the cytotoxicity at 83 µM came to 67%. The inhibition (in general, the percentage by which the read-out fell short of the control) at 10 µM in series [22] was 87%. Further, testing at 42 µM in [23] gave an inhibition of 68%.

As to `Cc1ccc(/N=C(\NCCN2CCOCC2)NC(=O)c2ccccc2)c(Cl)c1`, the outcome in [24], in series [1], in series [4], in series [25], in series [26] and in series [5] was Active. In addition, the outcome in [6], in [8], in [27], in series [28], in [9] and in series [12] was Active. Also, the outcome in [13], in series [30], in [31], in series [32], in series [15] and in series [16] was Active. The outcome in [19] and in series [20] was Active. The result in series [3] was inactive. Moreover, the inhibition at 10 µM in [22] amounted to 54%. In [29], the “fold change (FC)” value is listed as 7.

Regarding `CCc1ccccc1/N=C(\NCCN1CCOCC1)NC(=O)c1ccc(C)cc1`, the outcome in series [33], in series [3], in [34] and in series [37] was Active. The outcome in series [1], in series [2], in series [4], in series [35], in [5] and in [6] was inactive. The result in series [7], in [8], in series [9], in [11], in series [12] and in series [13] was inactive. Further, the result in series [30], in series [14], in series [15], in series [16], in [18] and in [19] was inactive. Further, in series [20], the outcome was inactive. Moreover, the IC50 – broadly, the midpoint of a concentration-inhibition curve – in series [36] was 4.4 µM; in series [38], over 83 µM. Moreover, the selectivity ratio in series [10] is over 19.

For `Cc1ccccc1/N=C(\NCCN1CCOCC1)NC(=O)c1ccccc1`, the outcome in series [1], in [2], in [4], in [5], in series [6] and in [7] was inactive. The outcome in series [8], in series [9], in [11], in series [12], in series [13] and in [14] was inactive. For the same molecule, the result in [15], in series [16], in [18], in [19] and in series [20] was inactive. Further, the outcome in series [3] was Active. This molecule displayed an inhibition at 10 µM in [22] of 75%. The molecule further yielded an IC50 in [38] of over 83 µM.

Take `Cc1cc(Br)ccc1/N=C(\NCCN1CCOCC1)NC(=O)c1ccccc1`: the result in series [33], in [24], in series [1], in [2], in series [4] and in series [34] was Active. Besides, the outcome in [25], in series [26], in series [5], in series [6], in series [7] and in series [8] was Active. The result in series [27], in series [28], in series [9], in [37], in series [11] and in series [12] was Active. Besides, the outcome in series [13], in series [31], in series [32], in series [14], in series [15] and in series [16] was Active. For the same molecule, the result in series [19] and in series [20] was Active. In series [3], the outcome was inactive. Besides, the figures for the IC50 in [36] and in [38] were 2.5 µM and over 83 µM, respectively. In addition, the selectivity ratio in series [10] was over 33. Further, the Activity in series [39] stood at 25%.

The values are drawn from ChEMBL document CHEMBL5505990, “Novel aroyl guanidine anti-trypanosomal compounds that exert opposing effects on parasite energy metabolism” (Eur J Med Chem, 2024).
